Patent US20200078395A1, “AVERTING COMPLICATIONS OF PUMP INHIBITOR THERAPY BY EFFERVESCENT CALCIUM MAGNESIUM CITRATE” (THE BOARD OF REGENTS OF THE UNIVERSITY OF TEXAS SYSTEM, priority 2018, published 2020)

How the values were obtained:
[1] = Multi-dosing crossover trial on esomeprazole: post-load serum calcium; assay type: in vivo, human; conditions: for number of subjects with hypocalcemia or marginal hypocalcemia (serum calcium <9 mg/dL): of 22 subjects; for subjects with low or marginally low serum calcium (<9 mg/dL): baseline 18%
Method: (§1) The inventors conducted a multi-dosing trial, in which the effect of EffCaMgCit was compared with placebo in a crossover trial in 22 healthy subjects taking PPI at twice the usual dose (esomeprazole 40 mg/day) for 28 days, representing the recommended treatment format for erosive esophagitis-gastritis. During the EffCaMgCit phase, subjects took EffCaMgCit containing 19 meq calcium and 10 meq magnesium twice per day for 28 days. During the Placebo Phase, the subjects took placebo for 28 days. During both phases, the subjects took esomeprazole 40 mg per day. Blood samples were obtained 4 hours after EffCaMgCit dose (in multi-dosing trials with esomeprazole), rather than in the fasting state. Tamsen: no study with PPI in CKD. Peak absorption of calcium and magnesium occurs 2-4 hours after oral load. Thus, pharmacokinetic and pharmacodynamic effects of EffCaMgCit can best be captured in post-load samples.
A venous blood sample was obtained at 4 hours after the morning dose of EffCaMgCit or placebo, for the analysis of Ca, PTH, CTX and Mg after 2 weeks and 4 weeks of treatment. […] In the Placebo group (while on esomeprazole), a low or marginally low serum calcium (<9 mg/dL) was encountered in 23% of subjects at 2 weeks and in 18% of subjects at 4 weeks. […] Thus, not only did EffCaMgCit raise serum calcium, but it also corrected low or marginally low serum calcium. At two weeks of placebo (esomeprazole alone), a higher percentage of subjects had low or marginally low serum calcium than at baseline before esomeprazole (23% vs. 18%). Thus, a low or marginally low serum calcium developed during two weeks of esomeprazole therapy in an additional patient. This subject had normal serum calcium on EffCaMgCit (plus esomeprazole). FIGS. 1 and 2.

[2] = system: serum PTH; assay: Multi-dosing crossover trial on esomeprazole: post-load serum PTH; assay type: in vivo, human; conditions: of 22 subjects, baseline 8
Method: as §1
(§2) A venous blood sample was obtained at 4 hours after the morning dose of EffCaMgCit or placebo, for the analysis of Ca, PTH, CTX and Mg after 2 weeks and 4 weeks of treatment. […] In the Placebo group (while on esomeprazole), a low or marginally low serum calcium (<9 mg/dL) was encountered in 23% of subjects at 2 weeks and in 18% of subjects at 4 weeks. […] Thus, not only did EffCaMgCit raise serum calcium, but it also corrected low or marginally low serum calcium. […]

[3] = system: serum CTX; assay: Multi-dosing crossover trial on esomeprazole: post-load serum CTX (bone resorption marker); assay type: in vivo, human; design: dose or concentration left out as unconfirmed; conditions: of 22 subjects
Method: as §1, §2

[4] = Multi-dosing crossover trial on esomeprazole: post-load serum magnesium; assay type: in vivo, human; conditions: for number of subjects with hypomagnesemia or marginal hypomagnesemia (<2 mg/dL): of 22 subjects, baseline 2; for subjects with hypomagnesemia or marginal hypomagnesemia (<2 mg/dL): baseline 9%
Method: as §1
Serum magnesium was determined at 2 weeks and 4 weeks at 4 hours after the morning dose. […] At baseline (before starting esomeprazole), 9% of subjects had hypomagnesemia or marginal hypomagnesemia (<2 mg/dL). During treatment with placebo with esomeprazole, hypomagnesemia or marginal hypomagnesemia was found in a higher percentage of subjects (14% at 2 weeks, and 23% at 4 weeks). During treatment with EffCaMgCit with esomeprazole, no subjects had hypomagnesemia or marginal hypomagnesemia. FIGS. 7 and 8.

[5] = Multi-dosing crossover trial on esomeprazole: fractional excretion of magnesium (FEMg); assay type: in vivo, human; conditions: from baseline over 2-4 weeks
Method: as §1

[6] = Multi-dosing crossover trial on esomeprazole: 24-h urinary citrate and ammonium (acid load); assay type: in vivo, human; conditions: after 2-4 weeks of treatment
Method: as §1
24-h urinary citrate and ammonium, urinary markers of acid-base balance, were determined at baseline and after 2-4 weeks of treatment with esomeprazole (plus placebo) and after treatment with esomeprazole (plus EffCaMgCit). […] FIGS. 10 and 11.

[7] = system: serum FGF23; assay: Multi-dosing crossover trial on esomeprazole: post-load serum FGF23; assay type: in vivo, human; conditions: 4 hours after morning dose, baseline to 4 weeks
Method: as §1

[8] = omeprazole use versus non-omeprazole use, FDA Adverse Event Reporting System 2012 (Tamura, 2012); cited from earlier work
[9] = Serum magnesium in CKD Stage 3 and Stage 5D after EffCaMgCit or calcium acetate; assay type: in vivo, human

COc1ccc2nc([S@@+]([O-])Cc3ncc(C)c(OC)c3C)[nH]c2c1 [esomeprazole]
number of subjects with hypocalcemia or marginal hypocalcemia (serum calcium <9 mg/dL) ([1]; after 4 weeks): 4 subjects | number of subjects with hypocalcemia or marginal hypocalcemia (serum calcium <9 mg/dL) ([1]; at 2 weeks): 5 subjects | subjects with low or marginally low serum calcium (<9 mg/dL) ([1]; at 2 weeks): 23% | subjects with low or marginally low serum calcium (<9 mg/dL) ([1]; at 4 weeks): 18% | number of subjects with high serum PTH (>65 pg/ml) ([2]; at 2 weeks): 15 subjects | number of subjects with high serum PTH (>65 pg/ml) ([2]; at 4 weeks): 10 subjects | number of subjects with high serum CTX (upper normal limit) ([3]; at 2 weeks): Six | number of subjects with high serum CTX (upper normal limit) ([3]; at 4 weeks): Six | number of subjects with hypomagnesemia or marginal hypomagnesemia (<2 mg/dL) ([4]; at 2 weeks): 3 subjects | subjects with hypomagnesemia or marginal hypomagnesemia (<2 mg/dL) ([4]; at 2 weeks): 14% | number of subjects with hypomagnesemia or marginal hypomagnesemia (<2 mg/dL) ([4]; at 4 weeks): 5 subjects | subjects with hypomagnesemia or marginal hypomagnesemia (<2 mg/dL) ([4]; at 4 weeks): 23% | FEMg, change during treatment [5]: trended downward | 24-h urinary ammonium compared with baseline [6]: marginally higher | 24-h urinary citrate compared with baseline [6]: significantly lower | serum FGF23, change from Baseline [7]: trend toward a decline | serum FGF23, change from Baseline ([7]; listed as PPI): tended to rise

COc1ccc2[nH]c([S+]([O-])Cc3ncc(C)c(OC)c3C)nc2c1 (centres unmarked) [omeprazole]
odds ratio of hypomagnesemia [8]: 2.76

CC(=O)[O-].CC(=O)[O-].[Ca+2] [calcium acetate]
serum magnesium after treatment ([9]; CKD Stage 3, data not shown): did not change | serum Mg after treatment ([9]; CKD Stage 5D without residual renal function): did not
